According to US6770738B1, “Higher order structure and binding of peptide nucleic acids” (ISIS Pharmaceuticals, Inc., priority 1992, dated 2004):

What was measured:
[1] = system: A98/T98 insert of pA98 plasmid; experiment: Electron microscopy of PNA-DNA complex; format: binding
Method: A pA98 plasmid containing an A98/T98 (SEQ ID NO:42) insert in the PstI site of the polylinker of a pUC 19 plasmid was used. 0.1 μg of the pA98 plasmid linearized by the Cfr1OI I restriction enzyme was incubated with 0.15 μg of PNA H-T10-LysNH2 (SEQ ID NO:2) at 37 °C. for 3 hours in 10 μL of the TE buffer (10 mM of Tris-HCl, 1 mM of Na3EDTA, pH 8.0). The complex was diluted with buffer containing 10 mM of Tris-HCl, 10 mM of NaCl, pH 7.5 to the final DNA concentration of 0.2-0.5 μg/mL and absorbed to the surface of glow discharged in tripropylamine carbon grid for 2 minutes as described in Duochet, J., Ultrastruct. Res., 1971 35, 147-167. The grid was stained in 0.1-0.5 % water solution of uranyl acetate for 10-15 sec and dried. The sample was shadowed with Pt/C (95/5) and studied in a Philips 400 electron microscope at accelerating voltage of 40 kV. The length of the DNA molecules were measured and a histogram was plotted as described by A. V. Kurakin in Micron Microscopica Acta, 22,213-221 (1991). The length of unwound region was measured by its thicker strand, for which the number of base pairs per unit length was assumed to be the same as for the DNA duplex. For analysis by use of a histogram, the molecules were oriented in such a manner that the left boundary of the loop was closer to the end of the molecule.

[2] = system: Taq DNA polymerase primer extension on pAIOKS; experiment: Inhibition of Taq DNA polymerase primer extension by PNA; format: biochemical; settings: pre-formed complex, 1 ug PNA
Method: A mixture of 100 500 ng Pvull cleaved plasmid pAIOKS, 0.1 ug M13 reverse primer and 1 ug of PNA T10-LysNH2(SEQ ID NO:2) in 10 ul buffer ([…], pH 8.3, 50 mM KCl, 1.5 mM MgCl2, 0.1 mg/ml gelatine) was incubated for 5 min at 90° C. and then for 60 min at 37° C. Subsequently, 1 U of Taq polymerase, 1 ul dCTP (100 uM), dGTP (100 uM), dTTP (100 uM) and ^32 P-dATP (1 uCi) were added and the incubation continued for 5 min at 20° C. Following the addition of 2 ul dATP, dCTP, dGTP, dTTP (1 mM each), the sample was incubated for 15 min at 60° C. The DNA was precipitated with ethanol and the samples treated as described for Example 18. The results are shown in FIG. 19: Lane 1: pTIOKS was cut with PvuII and no PNA was present. Lane 2: same as lane one with PNA present. Lane 3: no PNA and PTIOKS was cut with BamHl.

[3] = system: T3 RNA polymerase transcription of pA10KS (d(A10) target); experiment: Inhibition of RNA polymerase T3 transcription elongation by PNA; format: biochemical; settings: PNA 1 or 10 uM bound to the template strand
Method: The complex, between PNA T10-LysNH2 (SEQ ID NO:2) (1 or 10 um) and pAIOKS (pBluescriptKS^+ in which the d(A10) target is cloned into the BamHl site, analogous to pTlO) (100 ng) cleaved with restriction enzyme PyuII, XbaI, or BamHl, was formed by incubation in 14 μL 10 m Tris-HCl, 1 mM EDTA, (pH 7.4) buffer for 60 min. at 37° C. Subsequently 4 μL 5× concentrated polymerase buffer (0.2 M Tris-HCl, pH 8.0, 125 mM NaCl, 40 mM MgCl2, 10 mM spermidine) was added together with 15 U T3 RNA polymerase and ATP (10 mM), CTP (10 mM), GTP (10 mM), UTP (1 mM) and ^32P-UTP (0.1 μCi), and the incubation was continued for 10 min. Following ethanol precipitation, the RNA was analyzed by electrophoresis in sequencing gels and the radiolabeled bands were visualized by autoradiography using intensifying screens. The results are shown in FIG. 18: Lane 1: pTIOKS was cut with PyuH and no PNA was present. Lane 2: pTIOKS was cut with BamHl, and no PNA was present. Lane 3: pTIOKS was cut with XbaI, no PNA. Lane 4: as in lane 1 but in the presence of PNA (1 uM). Lane 5: as lane 3+PNA (1 uM). Lane 6: as lane 1+PNA (10 uM). Lane 7: as lane 3+PNA (10 uM).
The complex between the desired PNA and the desired DNA (100 ng) cleaved with the desired restriction enzyme was formed by incubation in 14 μL 10 mM Tris-HCl, 1 mM EDTA, (pH 7.4) buffer for 60 min at 37° C. Subsequently 4 μL 5× concentrated polymerase buffer (0.2 M Tris-HCl, pH 8.0, 125 mM NaCl, 40 mM MgCl2 10 mM spermidine) was added together with 15 U of RNA polymerase and ATP (10 μM), CTP (10 mM), UTP (1 mM) and ^32P-UTP (0.1 μCi). The incubation was continued for 10 min. Following ethanol precipitation, the RNA was analyzed by electrophoresis in polyacrylamide sequencing gels, and radialabeled RNA bands were visualized by autoradiography (using Agfa Curix RPI X-ray films and intensifying screens). Quantitation was performed by densitometric scanning using a Molecular Dynamics laser scanner and the ImageQuant™ software.
In this example transcription arrest with PNAs shorter than 10 mers was examined. […]

Substance: H-T10LysNH2 [PNA H-T10-LysNH2]
- strand displacement loop at full occupancy of the target [1]: 90-100 bases
- average size of the loop ([1]; standard error 17 bp): 114 bp
- primer extension product of Taq DNA polymerase [2]: a product corresponding in length to blockage at the PNA was produced
- transcription elongation by RNA polymerase T3 [3]: effectively blocked
